In patent publication US20190364889A1, “Application of Enhancer in Shortening the Half Life of and/or Time for Complete Degradation of Pesticide Residue” (priority 2016, published 2019):

Conditions: in vivo

Compound: CCOCN(C(=O)CCl)c1c(C)cccc1CC [acetochlor]
- complete degradation time: ~21 days
